Results published in PubChem BioAssay AID504934 (The Scripps Research Institute Molecular Screening Center, 2011).
Activity calls are given as the source filed them. The rule behind the calls is not given here.

How the values were obtained:
Assay in all cases: PubChem AID 504934
[1] = molecular target: Nuclear receptor ROR-gamma (Homo sapiens) (UniProt P51449); conditions: nuclear receptor panel Gal4 luciferase reporter, RORg, at 10 µM
[2] = molecular target: Glucocorticoid receptor (Homo sapiens) (UniProt P04150); conditions: nuclear receptor panel Gal4 luciferase reporter, GCCR, at 10 µM
Chain of Glucocorticoid receptor (Homo sapiens) (P04150 whole entry, looked up, the tested form may be a part): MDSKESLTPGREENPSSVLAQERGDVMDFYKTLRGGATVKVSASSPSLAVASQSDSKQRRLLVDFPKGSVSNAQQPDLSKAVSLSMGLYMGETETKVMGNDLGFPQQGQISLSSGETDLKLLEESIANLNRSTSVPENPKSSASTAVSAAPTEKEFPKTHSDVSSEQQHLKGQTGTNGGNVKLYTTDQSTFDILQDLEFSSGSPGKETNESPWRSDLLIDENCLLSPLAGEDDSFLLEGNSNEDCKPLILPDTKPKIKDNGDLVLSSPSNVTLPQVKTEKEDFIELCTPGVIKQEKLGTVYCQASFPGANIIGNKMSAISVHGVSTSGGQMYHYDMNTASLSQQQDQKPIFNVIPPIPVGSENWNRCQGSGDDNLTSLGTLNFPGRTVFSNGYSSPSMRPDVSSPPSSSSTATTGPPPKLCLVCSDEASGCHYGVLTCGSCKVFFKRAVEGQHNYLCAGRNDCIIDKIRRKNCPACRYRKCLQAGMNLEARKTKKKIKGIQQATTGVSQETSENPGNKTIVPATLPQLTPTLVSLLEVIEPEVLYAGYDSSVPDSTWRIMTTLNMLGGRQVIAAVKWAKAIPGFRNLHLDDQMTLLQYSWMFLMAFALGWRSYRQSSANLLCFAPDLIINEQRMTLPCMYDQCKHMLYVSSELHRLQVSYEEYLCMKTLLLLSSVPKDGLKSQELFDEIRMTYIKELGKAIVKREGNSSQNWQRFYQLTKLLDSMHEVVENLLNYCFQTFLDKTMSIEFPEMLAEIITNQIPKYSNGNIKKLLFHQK

Rev-erb a = conditions: nuclear receptor panel Gal4 luciferase reporter, at 10 µM
[3] = molecular target: Nuclear receptor ROR-alpha (Homo sapiens) (UniProt P35398); conditions: nuclear receptor panel Gal4 luciferase reporter, RORa, at 10 µM
Chain of Nuclear receptor ROR-alpha (Homo sapiens) (P35398 whole entry, looked up, the tested form may be a part): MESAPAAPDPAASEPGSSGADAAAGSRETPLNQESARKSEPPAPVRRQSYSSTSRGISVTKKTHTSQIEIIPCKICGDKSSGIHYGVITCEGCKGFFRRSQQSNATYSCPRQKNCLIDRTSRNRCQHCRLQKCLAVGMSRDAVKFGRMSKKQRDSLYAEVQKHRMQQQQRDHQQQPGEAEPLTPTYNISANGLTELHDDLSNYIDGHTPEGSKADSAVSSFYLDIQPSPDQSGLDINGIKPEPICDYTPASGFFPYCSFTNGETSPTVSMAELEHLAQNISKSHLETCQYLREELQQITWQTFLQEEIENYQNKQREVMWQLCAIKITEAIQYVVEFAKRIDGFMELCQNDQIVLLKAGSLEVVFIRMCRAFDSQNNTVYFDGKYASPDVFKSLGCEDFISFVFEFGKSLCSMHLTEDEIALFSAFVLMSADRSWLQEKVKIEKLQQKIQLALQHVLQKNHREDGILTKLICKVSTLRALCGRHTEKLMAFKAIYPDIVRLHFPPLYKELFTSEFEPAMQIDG

Rev-erb b = conditions: nuclear receptor panel Gal4 luciferase reporter, at 10 µM
pBIND-1 = conditions: nuclear receptor panel Gal4 luciferase reporter, at 10 µM
ERRg = conditions: nuclear receptor panel Gal4 luciferase reporter, at 10 µM
Nurr1 = conditions: nuclear receptor panel Gal4 luciferase reporter, at 10 µM
[4] = molecular target: Oxysterols receptor LXR-beta (Homo sapiens) (UniProt P55055); conditions: nuclear receptor panel Gal4 luciferase reporter, LXRb, at 10 µM
Chain of Oxysterols receptor LXR-beta (Homo sapiens) (P55055 whole entry, looked up, the tested form may be a part): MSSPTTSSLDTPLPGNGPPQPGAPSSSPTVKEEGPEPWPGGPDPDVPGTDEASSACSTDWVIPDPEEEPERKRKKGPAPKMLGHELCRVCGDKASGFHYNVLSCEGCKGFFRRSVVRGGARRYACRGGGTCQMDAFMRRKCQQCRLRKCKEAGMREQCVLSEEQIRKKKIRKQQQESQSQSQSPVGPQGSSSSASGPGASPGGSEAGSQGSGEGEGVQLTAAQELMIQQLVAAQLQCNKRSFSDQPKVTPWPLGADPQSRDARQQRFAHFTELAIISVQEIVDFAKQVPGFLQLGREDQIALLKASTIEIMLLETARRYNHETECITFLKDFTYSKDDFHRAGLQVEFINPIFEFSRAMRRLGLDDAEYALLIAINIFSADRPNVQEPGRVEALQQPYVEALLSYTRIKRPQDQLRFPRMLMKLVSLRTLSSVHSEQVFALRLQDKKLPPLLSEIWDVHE

THRa = conditions: nuclear receptor panel Gal4 luciferase reporter, at 10 µM
Nur77 = conditions: nuclear receptor panel Gal4 luciferase reporter, at 10 µM
THRb = conditions: nuclear receptor panel Gal4 luciferase reporter, at 10 µM
[5] = molecular target: Peroxisome proliferator-activated receptor gamma (Homo sapiens) (UniProt P37231); conditions: nuclear receptor panel Gal4 luciferase reporter, PPARg, at 10 µM
Chain of Peroxisome proliferator-activated receptor gamma (Homo sapiens) (P37231 whole entry, looked up, the tested form may be a part): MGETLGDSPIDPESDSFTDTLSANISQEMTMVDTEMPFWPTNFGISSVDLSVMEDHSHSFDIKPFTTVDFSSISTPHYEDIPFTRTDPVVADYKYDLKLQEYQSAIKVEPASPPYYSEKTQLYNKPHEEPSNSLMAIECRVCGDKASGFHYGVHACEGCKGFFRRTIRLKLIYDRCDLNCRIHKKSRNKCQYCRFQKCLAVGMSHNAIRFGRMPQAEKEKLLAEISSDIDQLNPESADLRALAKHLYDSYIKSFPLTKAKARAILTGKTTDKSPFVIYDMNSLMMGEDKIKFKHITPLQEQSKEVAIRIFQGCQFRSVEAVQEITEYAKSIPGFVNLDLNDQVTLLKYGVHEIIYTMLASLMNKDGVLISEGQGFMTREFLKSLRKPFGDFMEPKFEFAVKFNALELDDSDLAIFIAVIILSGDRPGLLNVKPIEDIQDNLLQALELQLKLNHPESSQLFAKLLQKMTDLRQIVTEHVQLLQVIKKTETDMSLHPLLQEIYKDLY

[6] = molecular target: Retinoic acid receptor alpha (Homo sapiens) (UniProt P10276); conditions: nuclear receptor panel Gal4 luciferase reporter, RARa, at 10 µM
Chain of Retinoic acid receptor alpha (Homo sapiens) (P10276 whole entry, looked up, the tested form may be a part): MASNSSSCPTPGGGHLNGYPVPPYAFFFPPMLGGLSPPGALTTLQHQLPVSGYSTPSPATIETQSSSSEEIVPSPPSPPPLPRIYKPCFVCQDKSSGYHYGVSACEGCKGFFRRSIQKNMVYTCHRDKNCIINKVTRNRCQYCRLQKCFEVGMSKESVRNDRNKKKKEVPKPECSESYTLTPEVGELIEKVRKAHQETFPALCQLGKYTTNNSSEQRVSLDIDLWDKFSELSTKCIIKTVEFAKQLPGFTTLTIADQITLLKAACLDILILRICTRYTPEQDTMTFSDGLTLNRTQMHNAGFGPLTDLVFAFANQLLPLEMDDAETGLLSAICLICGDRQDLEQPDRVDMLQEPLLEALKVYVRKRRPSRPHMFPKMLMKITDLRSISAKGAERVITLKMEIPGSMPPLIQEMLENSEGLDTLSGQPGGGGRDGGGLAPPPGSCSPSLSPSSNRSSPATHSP

MR = conditions: nuclear receptor panel Gal4 luciferase reporter, at 10 µM
GCNR = conditions: nuclear receptor panel Gal4 luciferase reporter, at 10 µM
Coup-TF1 = conditions: nuclear receptor panel Gal4 luciferase reporter, at 10 µM
PNR = conditions: nuclear receptor panel Gal4 luciferase reporter, at 10 µM
RORb = conditions: nuclear receptor panel Gal4 luciferase reporter, at 10 µM
AR = conditions: nuclear receptor panel Gal4 luciferase reporter, at 10 µM
HNF4g = conditions: nuclear receptor panel Gal4 luciferase reporter, at 10 µM
TR4 = conditions: nuclear receptor panel Gal4 luciferase reporter, at 10 µM
ERRa = conditions: nuclear receptor panel Gal4 luciferase reporter, at 10 µM
LXRa = conditions: nuclear receptor panel Gal4 luciferase reporter, at 10 µM

Chain of Nuclear receptor ROR-gamma (Homo sapiens) (P51449 whole entry, looked up, the tested form may be a part): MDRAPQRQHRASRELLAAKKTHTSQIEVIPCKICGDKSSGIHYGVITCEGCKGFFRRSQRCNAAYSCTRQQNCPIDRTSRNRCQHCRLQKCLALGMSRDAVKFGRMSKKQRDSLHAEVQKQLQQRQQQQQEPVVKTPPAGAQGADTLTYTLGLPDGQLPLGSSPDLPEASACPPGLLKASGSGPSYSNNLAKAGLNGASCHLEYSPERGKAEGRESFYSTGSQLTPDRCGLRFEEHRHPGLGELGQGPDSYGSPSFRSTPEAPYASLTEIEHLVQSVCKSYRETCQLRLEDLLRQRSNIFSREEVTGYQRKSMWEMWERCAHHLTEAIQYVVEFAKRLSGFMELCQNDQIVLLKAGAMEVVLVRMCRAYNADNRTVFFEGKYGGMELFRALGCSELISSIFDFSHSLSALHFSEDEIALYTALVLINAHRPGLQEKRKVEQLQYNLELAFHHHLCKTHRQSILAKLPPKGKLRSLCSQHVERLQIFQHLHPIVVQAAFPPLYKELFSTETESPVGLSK

- fold change [1]: 0.52
- fold change [2]: 1.13 (inactive)
- fold change (Rev-erb a): 0.84 (inactive)
- fold change [3]: 1 (inactive)
- fold change (Rev-erb b): 0.69
- fold change (ERRg): 0.49
- fold change (Nurr1): 0.79
- fold change [4]: 1.9 (inactive)
- fold change (THRa): 1.69
- fold change (Nur77): 0.72
- fold change (THRb): 1.06 (inactive)
- fold change [5]: 0.86 (inactive)
- fold change [6]: 0.47
- fold change (MR): 1.41
- fold change (GCNR): 1.06 (inactive)
- fold change (Coup-TF1): 0.72
- fold change (PNR): 0.72
- fold change (RORb): 0.82 (inactive)
- fold change (AR): 0.91 (inactive)
- fold change (HNF4g): 0.44
- fold change (TR4): 0.8
- fold change (ERRa): 1.34
- fold change (LXRa): 1.27
SMILES: O=c1cc(N2CCN(c3cccc(Cl)c3)CC2)[nH]c(=O)n1C1CCCCC1
- fold change (pBIND-1): 1.28
